According to US20240174690A1, “ANNULATED 2-AMINO-3-CYANO THIOPHENES AND DERIVATIVES FOR THE TREATMENT OF CANCER” (BOEHRINGER INGELHEIM INTERNATIONAL GMBH, priority 2021, published 2024):

What was measured:
[1] = system: KRAS G12D-dependent Ba/F3 cells; experiment: Ba/F3 proliferation assay, KRAS G12D; format: cell-based; conditions: Mus musculus, BaF3, 72 h, AlamarBlue
Method: (§1) Plasmids containing KRASG12 mutants (i.e. […], G12C, G12V) are obtained from GeneScript. To generate KRASG12-dependent Ba/F3 models, Ba/F3 cells are transduced with retroviruses containing vectors that harbor KRASG12 isoforms. Platinum-E cells (Cell Biolabs) are used for retrovirus packaging. Retrovirus is added to Ba/F3 cells. To ensure infection, 4 μg/mL polybrene is added and cells are spinfected. […] Cells with an infection efficiency of 10% to 20% are further cultivated and puromycin selection with 1 μg/mL is initiated. As a control, parental Ba/F3 cells are used to show selection status. Selection is considered successful when parental Ba/F3 cells cultures died. To evaluate the transforming potential of KRASG12 mutations, the growth medium is no longer supplemented with IL-3. Ba/F3 cells harboring the empty vector are used as a control. Approximately ten days before conducting the experiments, puromycin is left out.
(§2) Compounds are added using an Access Labcyte Workstation with a Labcyte Echo 550 or 555 accoustic dispenser. All treatments are performed in technical duplicates. […] AlamarBlue™ (ThermoFisher), a viability stain, is added and fluorescence measured in the PerkinElmer Envision HTS Multilabel Reader. The raw data are imported into and analyzed with the Boehringer Ingelheim proprietary software MegaLab (curve fitting based on the program PRISM, GraphPad Inc.).

[2] = system: KRAS G12V-dependent Ba/F3 cells; experiment: Ba/F3 proliferation assay, KRAS G12V; format: cell-based; conditions: Mus musculus, BaF3, 72 h, AlamarBlue;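 note: proliferation IC50 in KRAS G12V-dependent Ba/F3 cells read by AlamarBlue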
Method: as §1, §2

[3] = system: AsPC-1 cells; experiment: AsPC-1 CTG proliferation assay (120 h) (pancreatic cancer, G12D); format: cell-based; conditions: Homo sapiens, ASPC1
Method: AsPC-1 CTG Proliferation Assay (120 h) (Pancreatic Cancer, G12D)
The CTG assay is designed to measure quantitatively the proliferation of AsPC-1 cells (ATCC […]), using the CellTiter Glow Assay Kit (Promega G7571). Cells are grown in RPMI medium (ATCC) supplemented with Fetal Calf Serum (Life Technologies, Gibco BRL, Cat. No. 10270-106). On “day 0” 2000 AsPC-1 cells are seeded in 60 μL RPMI ATCC+10% FCS+Penstrep in a 384-well plate, flat and clear bottom (Greiner, PNr. 781091). Cells are then incubated in the plates at 37° C. in a CO2 incubator overnight. On day 1, compounds (10 mM stock in DMSO) are added with the ECHO acoustic liquid handler system (Beckman Coulter), including DMSO controls. Plates are incubated for 120 h, and cell viability is measured using CellTiter-Glo luminescent cell viability reagent (Promega product code G7570). Viability (stated as percent of control) is defined as relative luminescence units RLU of each well divided by the RLU of cells in DMSO controls. IC50 values are determined from viability measurements by non-linear regression using a four-parameter model.

[4] = system: SAS cells; experiment: SAS CTG proliferation assay (120 h) (HNSCC, wt amplified); format: cell-based
Method: SAS CTG Proliferation Assay (120 h) (HNSCC, Wt Amplified)
(§3) SAS cells (JCRB0260) are dispensed into 384-well plates, flat and clear bottom (Greiner, PNr. 781091) at a density of 300 cells per well in 60 μL DMEM:F12 (Gibco 31330-038)+10% Fetal Calf Serum (HyClone, PNr.: SH30084.03) and incubated at 37° C. in a CO2 incubator overnight. The next day, compounds (10 mM stock in DMSO) are added with the ECHO acoustic liquid handler system (Beckman Coulter), including DMSO controls. Plates are incubated for 120 h, and cell viability is measured using CellTiter-Glo luminescent cell viability reagent (Promega product code G7570). Viability (stated as percent of control) is defined as relative luminescence units RLU of each well divided by the RLU of cells in DMSO controls. IC50 values are determined from viability measurements by non-linear regression using a four-parameter model.

[5] = system: KRAS G12C-dependent Ba/F3 cells; experiment: Ba/F3 proliferation assay, KRAS G12C; format: cell-based; conditions: Mus musculus, BaF3, 72 h, AlamarBlue
Method: as §1, §2

[6] = system: LOVO cells; experiment: LOVO CTG proliferation assay (120 h) (CRC, G13D); format: cell-based; conditions: Homo sapiens, CTG 120 h
Method: LOVO CTG Proliferation Assay (120 h) (CRC, G13D)
as §3, with “LOVO cells (ATCC” for “SAS cells (JCRB0260)”, “LOVO cells (ATCC CCL-229) are dispensed” for “SAS cells (JCRB0260) are dispensed”, “density of 1000 cells per” for “density of 300 cells per”, “60 μL DMEM (Sigma D6429)+10% Fetal Calf” for “60 μL DMEM:F12 (Gibco 31330-038)+10% Fetal Calf”

[7] = Caco-2 assay (permeability PappAB, PappBA, efflux ratio); format: in vitro ADME; conditions: human, Caco-2, 10 μM test compound, pH 7.4
Source text: The assay provides information on the potential of a compound to pass the cell membrane, on the extent of oral absorption as well as on whether the compound is actively transported by uptake and/or efflux transporters. Permeability measurements across polarized, confluent Caco-2 cell monolayers grown on permeable filter supports (Corning, catalog #3391) are used. […] The receiver and donor compartments contain 0.25% bovine serum albumine (BSA) in assay buffer. Passive diffusion and/or active transport of compounds across the monolayer is measured in both apical to basolateral (a-b) and basolateral to apical (b-a) direction. a-b permeability (PappAB) represents drug absorption from the intestine into the blood and b-a permeability (PappBA) drug secretion from the blood back into the intestine via both passive permeability as well as active transport mechanisms mediated by efflux and uptake transporters that are expressed on the Caco-2 cells. After a pre-incubation of 25-30 min at 37° C., at predefined time points (0, 30, 60 and 90 min), samples were taken from the receiver and donor compartment, respectively. Concentrations of test compounds in samples were measured by HPLC/MS/MS, samples from the donor compartment were diluted 1:50 (v:v) with assay buffer, samples from receiver compartment were measured without dilution.
Apparent permeabilities in a-b (PappAB) and b-a (PappBA) directions are calculated according to the formula:
[formula] • Vrec [mL]: buffer volume in receiver compartment • Cdon [μmol/mL]: concentration of test compound in donor compartment at t=0 • ΔCrec: difference between concentrations of test compound in receiver compartment at start and end of incubation time • Δt: Incubation time • Vrec·ΔCrec/Δt [μmol/min]: Amount of compound transferred to receiver compartment per time • A [cm^2]: filter surface
Caco-2 efflux ratios (ER) are calculated as the ratio of PappBA/PappAB.

Row | SMILES | IC50 [1] [µM] | IC50 [2] [µM] | IC50 [3] [µM] | IC50 [4] [µM] | IC50 [5] [µM] | IC50 [6] [µM] | efflux ratio at 90 min, 10 μM ([7]; efflux ratio PappBA/PappAB, read-out: Caco ER) | Papp A→B at 90 min, 10 μM ([7]; apical to basolateral) [nm/s]
1 | C[C@H](Oc1cc(N2CCNC2=O)nc(-c2noc3c2CCC[C@@]32CCCc3sc(N)c(C#N)c32)n1)[C@@H]1CCCN1C [II-64] | 0.011 | 0.005 | 1.07 | 0.016 | 0.009 | 0.096 |  | 
2 | C[C@H](Oc1cc(-n2ccc(C#N)n2)nc(-c2noc3c2CCC[C@@]32CCCc3sc(N)c(C#N)c32)n1)[C@@H]1CCCN1C [II-102] | 0.014 | 0.004 | 2.77 | 0.071 | 0.004 | 0.076 |  | 
3 | C[C@H](Oc1cc(-n2ccnc2Cl)nc(-c2noc3c2CCC[C@@]32CCCc3sc(N)c(C#N)c32)n1)[C@@H]1CCCN1C [II-93] | 0.043 | 0.045 | 4.65 | 0.366 | 0.016 | 0.136 |  | 
4 | C[C@H](Oc1cc(-n2cnc3cccnc32)nc(-c2noc3c2CCC[C@@]32CCCc3sc(N)c(C#N)c32)n1)[C@@H]1CCCN1C [II-65] | 0.122 | 0.04 | 3.56 | 0.173 | 0.097 | 0.289 |  | 
5 | C[C@H](Oc1cc(-c2ccn3ncnc3c2)nc(-c2noc3c2CCC[C@@]32CCCc3sc(N)c(C#N)c32)n1)[C@@H]1CCCN1C [II-104] | 0.078 | 0.012 |  | 0.114 | 0.024 |  | 4.2 | 
6 | C[C@H](Oc1cc(N2CCc3cccnc32)nc(-c2noc3c2CCC[C@@]32CCCc3sc(N)c(C#N)c32)n1)[C@@H]1CCCN1C [II-90] | 0.397 | 0.115 | 3.81 | 4.39 | 0.157 | 0.735 |  | 
7 | C[C@H](Oc1cc(N2C[C@H](C)NC3(CC3)C2)nc(-c2onc3c2CCC[C@@]32CCCc3sc(N)c(C#N)c32)n1)[C@@H]1CCCN1C [I-8] | 0.004 | 0.258 | 0.512 | 0.131 | 0.106 | 0.296 |  | 
8 | C[C@H](Oc1cc(N2CCCC3(COC3)C2)nc(-c2noc3c2CCC[C@@]32CCCc3sc(N)c(C#N)c32)n1)[C@@H]1CCCN1C [II-72] | 0.039 | 0.021 | 0.783 | 0.206 | 0.022 | 0.055 |  | 
9 | C[C@H](Oc1cc(-n2ccncc2=O)nc(-c2noc3c2CCC[C@@]32CCCc3sc(N)c(C#N)c32)n1)[C@@H]1CCCN1C [II-116] | 0.03 | 0.008 | 6.52 | 2.01 | 0.006 | 0.008 |  | 
10 | C[C@H](Oc1cc(N2CCNC[C@@]23CCOC3)nc(-c2noc3c2CCC[C@@]32CCCc3sc(N)c(C#N)c32)n1)[C@@H]1CCCN1C [II-51] | 0.037 | 0.693 | 0.903 | 0.07 | 0.314 | 0.772 |  | 
11 | C[C@H](Oc1cc(-c2ccn(-c3ccsc3)n2)nc(-c2noc3c2CCC[C@@]32CCCc3sc(N)c(C#N)c32)n1)[C@@H]1CCCN1C [II-84] | 0.079 | 0.017 | 3.06 | 0.052 | 0.036 | 0.286 |  | 
12 | C[C@H](Oc1cc(N2CCOC3(CC3)C2)nc(-c2noc3c2CCC[C@@]32CCCc3sc(N)c(C#N)c32)n1)[C@@H]1CCCN1C [II-61] | 0.055 | 0.038 | 1.55 | 0.169 | 0.047 | 0.276 |  | 
13 | C[C@H]1CN(C)CCCN1c1cc(N2CCN(C)CC2)nc(-c2onc3c2CCC[C@@]32CCCc3sc(N)c(C#N)c32)n1 [I-7] | 0.19 |  | 2.37 | 0.472 | 0.608 | 2.81 |  | 
14 | C[C@H](Oc1cc(-c2cncs2)nc(-c2noc3c2CCC[C@@]32CCCc3sc(N)c(C#N)c32)n1)[C@@H]1CCCN1C [II-80] | 0.041 | 0.01 | 5.08 | > 25 | 0.021 | 0.561 |  | 
15 | C[C@H](Oc1cc(-c2cn(C3CCOCC3)nn2)nc(-c2noc3c2CCC[C@@]32CCCc3sc(N)c(C#N)c32)n1)[C@@H]1CCCN1C [II-115] | 0.131 | 0.034 |  |  | 0.029 |  |  | 
16 | C[C@H](Oc1cc(N2CCCC2=O)nc(-c2noc3c2CCC[C@@]32CCCc3sc(N)c(C#N)c32)n1)[C@@H]1CCCN1C [II-73] | 0.016 | 0.017 | 1.81 | 0.033 | 0.01 | 0.25 |  | 
17 | C[C@H](Oc1cc(-c2ccn(C3COC3)n2)nc(-c2noc3c2CCC[C@@]32CCCc3sc(N)c(C#N)c32)n1)[C@@H]1C[C@H](F)CN1C [II-83] | 0.033 | 0.018 | 5.13 | 0.018 | 0.015 | 2.2 |  | 
18 | C[C@H](Oc1cc(N2CCNCC23CCOC3)nc(-c2onc3c2CCC[C@@]32CCCc3sc(N)c(C#N)c32)n1)[C@@H]1CCCN1C (stereo partly shown) [I-10] | 0.009 | 0.247 |  |  | 0.218 |  |  | < 21
19 | C[C@H](Oc1cc(-c2cnn(C)c2)nc(-c2noc3c2CCC[C@@]32CCCc3sc(N)c(C#N)c32)n1)[C@@H]1CCCN1C [II-74] | 0.081 | 0.011 | 3.21 | 0.192 | 0.05 | 0.319 |  | 
20 | Cc1nc(-c2cc(O[C@@H](C)[C@@H]3CCCN3C)nc(-c3noc4c3CCC[C@@]43CCCc4sc(N)c(C#N)c43)n2)cs1 [II-103] | 0.021 |  |  |  | 0.007 |  |  | 
